System: HeLa cells
Experiment: Large-scale screening for propidium iodide (PI) transduction activity, flow cytometry
Type: cell-based, Human
Conditions: data not shown
Experimental: HeLa cells were plated (20 000 cells/well) in a 96 well-plate the day prior to the experiment in DMEM containing 10% FBS. Each delivery mix comprising a synthetic peptide shuttle agent (10-30 μM) and the propidium iodide (PI) (10 μg/mL) were prepared and completed to 50 μL with PBS. Cells were washed once with PBS and the shuttle/PI mix was added to the cells and incubated for one minute. Then 100 μL DMEM containing 10% FBS was added to the mix. Cells were then immediately washed once with PBS and incubated in DMEM containing 10% FBS for two hours. Cells were then analyzed by flow cytometry. […]
Due to the large number of peptides screened, negative controls were performed in parallel for each experimental batch and included a “no treatment” (NT) control in which the cells were not exposed to shuttle peptide or cargo, as well as a “cargo alone” control in which cells were exposed to the cargo in the absence of shuttle agent. […] Mean PI or GFP-NLS delivery score was calculated by multiplying the mean fluorescence intensity (of at least duplicate samples) measured for the viable PI+ or GFP+ cells by the mean percentage of viable PI+ or GFP+ cells, divided by 100,000 for GFP delivery or by 10,000 for PI delivery. […]

Which “PI transduction efficiency relative to cargo alone negative control” value does the source give for “FSD174 Scramble: negative control peptide known to have low or no GFP transduction activity (LGRSGRIKIGGWSALASRARQARGLKIWTQGRL; FSD174 Scramble)” here?
Its value is “lower transduction efficiencies for PI”.
